Source: US5585511A, “Platinum complex and malignant tumor treating drug containing the same” (SS Pharmaceutical Co., Ltd., priority 1994, dated 1996)

What was measured:
[1] = system: murine L1210 leukemia cells; experiment: Antitumor effect on murine L1210 leukemia cell (intraperitoneally inoculated mice, increase in life-span); assay type: in vivo, murine; male CDF1 mice; conditions: for ILS50 (a dose which shows 50% of the ILS value by 5 administrations): from linear regression line; for dose corresponding to ILSmax: dose shown in parenthesis; for ILSmax (maximum ILS value within the set doses): male CDF1 mice, observed for 30 days
From the text: (§1) Murine L1210 leukemia cells (1×10^5 cells) were inoculated peritoneally into six-week-old male CDF1 mice.
(§2) T: mean survival days of drug-treated group
(§3) C: mean survival days of untreated group
(§4) In the table, ILSmax means the maximum ILS value (%) within the set doses, and its corresponding dose (mg/kg) is shown in parenthesis.

[2] = system: cisplatin-resistant murine L1210 leukemia cell (L1210/DDP); experiment: Antitumor effect on cisplatin-resistant murine L1210 leukemia cell (L1210/DDP), increase in life-span; assay type: in vivo, murine; male CDF1 mice; conditions: for dose corresponding to ILSmax: dose(s) shown in parenthesis; for ILSmax (maximum ILS value within the set doses): male CDF1 mice, observed for 30 days; for ILS50 (a dose which shows 50% of the ILS value by 5 administrations): ND: not detectable; for TI (therapeutic index LD50/ILS50): LD50/ILS50, ND: not detectable
From the text: as §1, §2, §3, §4
Antitumor effect on cisplatin-resistant murine L1210 leukemia cell:
The above test of the antitumor effect on murine leukemia cells was repeated except that cisplatin-resistant murine L1210 leukemia cell (L1210/DDP) was used instead of murine L1210 leukemia cell, with the results shown in Table 2.

male CDF1 mice = experiment: 50% lethal dose by single intraperitoneal administration; assay type: in vivo
From the text: as §4

N.N.[Cl][Pt][Cl] [Cisplatin, cisplatin, reference compound]
ILS50 (a dose which shows 50% of the ILS value by 5 administrations) [1]: 1.3 mg/kg
dose corresponding to ILSmax [1]: 4 mg/kg
ILSmax (maximum ILS value within the set doses) [1]: 97.5%
dose corresponding to ILSmax [2]: 4 mg/kg
ILSmax (maximum ILS value within the set doses) [2]: 1.0%

O=C([O][Pt]1([Cl])[NH]C2CCCCC2[NH]1)C1CCCC1 (stereo not drawn) [Compound 16, chloro(cyclopentanecarboxylato)(trans-1-1,2-diaminocyclohexane)platinum(II)]
ILS50 (a dose which shows 50% of the ILS value by 5 administrations) [1]: 5.6 mg/kg
TI (therapeutic index LD50/ILS50) [1]: 31.6
dose corresponding to ILSmax [1]: 32 mg/kg
ILSmax (maximum ILS value within the set doses) [1]: > 221.3%
ILS50 (a dose which shows 50% of the ILS value by 5 administrations) [2]: < 4.0 mg/kg
TI (therapeutic index LD50/ILS50) [2]: > 44.2
dose corresponding to ILSmax [2]: 4,8 mg/kg
ILSmax (maximum ILS value within the set doses) [2]: > 194.1%
LD50 (male CDF1 mice): 176.8 mg/kg

chloro (cyclopropanecarboxylato) (trans-1-1,2-diaminocyclohexane)platinum(II) [Compound 15]
ILS50 (a dose which shows 50% of the ILS value by 5 administrations) [1]: 1.2 mg/kg
TI (therapeutic index LD50/ILS50) [1]: 26.1
dose corresponding to ILSmax [1]: 8 mg/kg
ILSmax (maximum ILS value within the set doses) [1]: > 166.3%
ILS50 (a dose which shows 50% of the ILS value by 5 administrations) [2]: < 1.0 mg/kg
TI (therapeutic index LD50/ILS50) [2]: > 31.3
dose corresponding to ILSmax [2]: 1,2 mg/kg
ILSmax (maximum ILS value within the set doses) [2]: > 194.1%
LD50 (male CDF1 mice): 31.3 mg/kg

chloro(1-lactato)(trans-1-1,2-diaminocyclohexane)platinum(II) [Compound 17]
ILS50 (a dose which shows 50% of the ILS value by 5 administrations) [1]: < 1.0 mg/kg
TI (therapeutic index LD50/ILS50) [1]: > 44.3
dose corresponding to ILSmax [1]: 8 mg/kg
ILSmax (maximum ILS value within the set doses) [1]: > 190.0%
ILS50 (a dose which shows 50% of the ILS value by 5 administrations) [2]: < 1.0 mg/kg
TI (therapeutic index LD50/ILS50) [2]: > 44.3
dose corresponding to ILSmax [2]: 1,2 mg/kg
ILSmax (maximum ILS value within the set doses) [2]: > 194.1%
LD50 (male CDF1 mice): 44.3 mg/kg

chloro(propionato)(trans-1-1,2-diaminocyclohexane)platinum(II) [Compound 14]
ILS50 (a dose which shows 50% of the ILS value by 5 administrations) [1]: 1.0 mg/kg
TI (therapeutic index LD50/ILS50) [1]: 44.3
dose corresponding to ILSmax [1]: 8 mg/kg
ILSmax (maximum ILS value within the set doses) [1]: 146.3%
ILS50 (a dose which shows 50% of the ILS value by 5 administrations) [2]: < 1.0 mg/kg
TI (therapeutic index LD50/ILS50) [2]: > 44.3
ILSmax (maximum ILS value within the set doses) [2]: > 194.1%
LD50 (male CDF1 mice): 44.3 mg/kg
